Data published in patent publication US8551984B2, “Aminopyrimidines as SYK inhibitors” (Merck Sharp & Dohme Corp., priority 2009, dated 2013).

Target: recombinant human SYK (GST-hSYK fusion protein) (Homo sapiens, UniProt P43405)
Test: biochemical
Conditions: rhSYK Activity, Table 108A
Source text: Homogeneous Time-Resolved Fluorescence (HTRF) Assay for the Recombinant Human SYK Enzyme:

Cc1cc(Nc2nccc(OCCc3cnn(C)c3)n2)cc(-c2cnc(C3(O)CCC3)s2)c1 [Example 108A-8]
IC50: < 100 nM

Cc1cc(Nc2nccc(OCc3ccon3)n2)cc(-c2cnc(C3(O)CCC3)s2)c1 [Example 108A-9]
IC50: < 100 nM

Cc1cc(Nc2nccc(OCCn3nccn3)n2)cc(-c2cnc(C3(O)CCC3)s2)c1 [Example 108A-12]
IC50: < 100 nM

Cc1cc(Nc2nccc(OCCn3ccnn3)n2)cc(-c2cnc(C3(O)CCC3)s2)c1 [Example 108A-13]
IC50: < 100 nM

Cc1cc(Nc2nccc(OCCNC3CCN(C)CC3)n2)cc(-c2cnc(C3(O)CCC3)s2)c1 [Example 108A-14]
IC50: 100 to 1000 nM

Cc1cc(Nc2nccc(OCC3Cc4ccccc4N3)n2)cc(-c2cnc(C3(O)CCC3)s2)c1 (stereo not shown) [Example 108A-15]
IC50: 100 to 1000 nM

Cc1cc(Nc2nccc(OCc3ccnn3C)n2)cc(-c2cnc(C3(O)CCC3)s2)c1 [Example 108A-16]
IC50: < 100 nM

Cc1cc(Nc2nccc(OCCN3CCCNCC3)n2)cc(-c2cnc(C3(O)CCC3)s2)c1 [Example 108A-19]
IC50: < 100 nM

Cc1cc(Nc2nccc(OCC3CN(C)CCN3C)n2)cc(-c2cnc(C3(O)CCC3)s2)c1 (stereo not shown) [Example 108A-20]
IC50: < 100 nM

Cc1cc(Nc2nccc(OCCc3nnn[nH]3)n2)cc(-c2cnc(C3(O)CCC3)s2)c1 [Example 108A-21]
IC50: < 100 nM

Cc1cc(Nc2nccc(OCC#Cc3cncnc3)n2)cc(-c2cnc(C3(O)CCC3)s2)c1 [Example 108A-22]
IC50: 100 to 1000 nM

Cc1cc(Nc2nccc(OCC3CC(=O)N(C)C3)n2)cc(-c2cnc(C3(O)CCC3)s2)c1 (stereo not shown) [Example 108A-23]
IC50: < 100 nM

Cc1cc(Nc2nccc(OCC3(C)CCCNC3)n2)cc(-c2cnc(C3(O)CCC3)s2)c1 (stereo not shown) [Example 108A-24]
IC50: < 100 nM

Cc1cc(Nc2nccc(OCCC3CN(C)CCO3)n2)cc(-c2cnc(C3(O)CCC3)s2)c1 (stereo not shown) [Example 108A-25]
IC50: < 100 nM

Cc1cc(Nc2nccc(OC(C)CN3CC(C)OC3=O)n2)cc(-c2cnc(C3(O)CCC3)s2)c1 (stereo not shown) [Example 108A-27]
IC50: < 100 nM

Cc1cc(Nc2nccc(OCCOc3cccc(O)c3)n2)cc(-c2cnc(C3(O)CCC3)s2)c1 [Example 108A-28]
IC50: 100 to 1000 nM

Cc1cc(Nc2nccc(OCCCc3cccnc3)n2)cc(-c2cnc(C3(O)CCC3)s2)c1 [Example 108A-29]
IC50: < 100 nM

Cc1cc(Nc2nccc(OCCN3CCCC3=O)n2)cc(-c2cnc(C3(O)CCC3)s2)c1 [Example 108A-30]
IC50: < 100 nM

Cc1cc(Nc2nccc(OCCCCO)n2)cc(-c2cnc(C3(O)CCC3)s2)c1 [Example 108A-31]
IC50: < 100 nM

Cc1cc(Nc2nccc(OCCO)n2)cc(-c2cnc(C3(O)CCC3)s2)c1 [Example 108A-34]
IC50: < 100 nM

Cc1cc(Nc2nccc(OCCCO)n2)cc(-c2cnc(C3(O)CCC3)s2)c1 [Example 108A-35]
IC50: < 100 nM

CCOc1ccnc(Nc2cc(C)cc(-c3cnc(C4(O)CCC4)s3)c2)n1 [Example 108A-36]
IC50: < 100 nM

Cc1cc(Nc2nccc(OC(C)C)n2)cc(-c2cnc(C3(O)CCC3)s2)c1 [Example 108A-37]
IC50: < 100 nM

Cc1cc(Nc2nccc([S+](C)[O-])n2)cc(-c2cnc(C3(O)CCC3)s2)c1 (stereo not shown) [Example 108A-38]
IC50: < 100 nM

Cc1cc(Nc2nccc(S(C)(=O)=O)n2)cc(-c2cnc(C3(O)CCC3)s2)c1 [Example 108A-39]
IC50: < 100 nM

CCSc1ccnc(Nc2cc(C)cc(-c3cnc(C4(O)CCC4)s3)c2)n1 [Example 108A-40]
IC50: < 100 nM

CCCCSc1ccnc(Nc2cc(C)cc(-c3cnc(C4(O)CCC4)s3)c2)n1 [Example 108A-41]
IC50: 100 to 1000 nM

Cc1cc(Nc2nccc(SC(C)C)n2)cc(-c2cnc(C3(O)CCC3)s2)c1 [Example 108A-43]
IC50: < 100 nM

Cc1cc(Nc2nccc(SCCO)n2)cc(-c2cnc(C3(O)CCC3)s2)c1 [Example 108A-44]
IC50: < 100 nM

Cc1cc(Nc2nccc(SCCCO)n2)cc(-c2cnc(C3(O)CCC3)s2)c1 [Example 108A-45]
IC50: < 100 nM

Cc1cc(Nc2nccc(SCCCCO)n2)cc(-c2cnc(C3(O)CCC3)s2)c1 [Example 108A-46]
IC50: < 100 nM
